Assays:
[1] = cited from earlier work
[2] = test system: heart failure rat model (MI Rat Model); experiment: In vivo cardiac contractility in heart failure (MI) rat model; design: species or system Lewis rat; conditions: heart failure rats in vivo, acute settings
Procedure: Evidence for Improvement in Cardiac Contractility In Vivo in Heart Failure Rat Model
Based on the ex vivo findings in isolated heart assay, APJ agonists were dosed in vivo to investigate the translation of cardiac contractility in in vivo settings. Male Lewis rats (Charles River, USA) at 2-3 months of age were used for the study. Heart failure was induced by permanent ligation of the left descending coronary artery which results in injury to the heart with an ejection fraction of <35%. APJ agonists were administered dose dependently acutely for a period of 30 min. Administration of example compounds lead to an increase in cardiac contractility as measured by dP/dtmax (derivative of left ventricular pressure) (Table 41).

[3] = molecular target: human APJ receptor (Homo sapiens (Human), UniProt P35414); experiment: biochemical; format: biochemical; conditions: [35S]GTPγS binding, CHO membranes expressing human APJ receptor; read-out: Activity hAPJ SPA EC50 IP
Summary of the method: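 GTPγS binding on membranes from CHO cells stably expressing FLAG-tagged human APJ, with optimized GDP, MgCl2 and NaCl; incubated 90 min at RT before imaging read-out.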

Chain of human APJ receptor (P35414 whole entry): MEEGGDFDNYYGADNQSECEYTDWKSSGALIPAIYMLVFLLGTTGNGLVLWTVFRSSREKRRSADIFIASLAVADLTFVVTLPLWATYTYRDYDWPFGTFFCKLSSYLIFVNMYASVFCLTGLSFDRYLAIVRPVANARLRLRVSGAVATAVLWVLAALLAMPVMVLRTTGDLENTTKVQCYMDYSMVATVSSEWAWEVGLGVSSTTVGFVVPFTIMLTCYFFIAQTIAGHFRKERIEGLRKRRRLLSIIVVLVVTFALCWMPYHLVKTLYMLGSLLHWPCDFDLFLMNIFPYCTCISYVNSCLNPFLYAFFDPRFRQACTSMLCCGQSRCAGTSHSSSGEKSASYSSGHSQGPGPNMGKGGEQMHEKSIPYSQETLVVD

Row | Compound | EC50 [3] [nM] | further results
1 | Apelin-13 (QRPRLSHKGPMPF; Apelin-13; UniProt Q9ULZ1 65-77, looked up) |  | plasma half-life [1]: < 5 min
2 | C[C@H](CS)C(=O)N1CCC[C@H]1C(=O)O [Captopril] |  | improvement in contractility or ejection fraction [2]: does not show a marked improvement in contractility or ejection fraction
3 | COc1ccc(N2CCC2=O)cc1-n1c(NS(=O)(=O)CCc2ccc(F)cc2)nnc1-c1cccs1 [Example 130.0, 2-(4-Fluorophenyl)-N-(4-(2-methoxy-5-(2-oxo-1-azetidinyl)phenyl)-5-(2-thiophenyl)-4H-1,2,4-triazol-3-yl)ethanesulfonamide] | 3.5 | 
4 | COc1cccc(OC)c1-n1c(NS(=O)(=O)[C@@H](C)[C@H](C)c2ncc(Cl)cn2)nnc1-c1n[nH]c2ccccc12 [Example 429.0] | 7.6 | 
5 | COc1cccc(OC)c1-n1c(NS(=O)(=O)[C@@H](C)[C@H](OC)c2cnc(C)cn2)nnc1-c1ccn(C(F)F)n1 [Example 223.0, (1R,2S)-N-(5-(1-(difluoromethyl)-1H-pyrazol-3-yl)-4-(2,6-dimethoxyphenyl)-4H-1,2,4-triazol-3-yl)-1-methoxy-1-(5-methyl-2-pyrazinyl)-2-propanesulfonamide] | 2.9 | 
